Results as given in US20100210557A1, “USE OF RFRP, ALONE OR IN COMBINATION WITH NEUROKININ-B, AS A THERAPEUTIC AGENT” (priority 2007, published 2010).
No end group written: not given here.

Legend:
HCMV strain AD169 = assay: HCMV plaque formation assay in MRC-5 cells; settings: for inhibition of HCMV plaque formation as compared to the virus control: 10 micrograms per ml, 7-10 days
[1] = test system: hepatitis B virus (HBV) ayw strain; assay: HBV assay in HepG2-2.2.15 cells (secreted HBV DNA by TaqMan PCR); format: cell-based; settings: 10 micrograms per ml; six days; HBV DNA in supernatant
From the text: HepG2-2.2.15 is a stable cell line containing the hepatitis B virus (HBV) ayw strain genome (ATCC Cat. No. CRL-11997). Antiviral compounds blocking any late step of viral replication such as transcription, translation, pregenome encapsidation, reverse transcription, particle assembly and release can be identified and characterized using this cell line. In this assay, an active compound will reduce the production of secreted HBV from cells, measured by utilizing real time quantitative PCR (TaqMan) assay to directly and accurately measure HBV DNA copies.
HepG2-2.2.15 cells were plated in 96-well microtiter plates. After 16-24 hours the confluent monolayer of HepG2-2.2.15 cells was washed and the medium was replaced with complete medium containing test peptides—10 micrograms per ml—in duplicate. […] Six days following the initial administration of the peptides, the cell culture supernatants was collected, treated with pronase and DNAse and then used in a real-time quantitative TaqMan PCR assay. The PCR-amplified HBV DNA was detected in real-time by monitoring increases in fluorescence signals that result from the exonucleolytic degradation of a quenched fluorescence probe molecule that hybridizes to the amplified HBV DNA. […] Antiviral activity was calculated from the reduction in HBV DNA levels (% virus control). […]

[2] = test system: spleen cells of Ovalbumin-immunized Balb/c mice; assay: Th1/Th2 cytokine profiling assay; format: cell-based, mouse; settings: 10 micrograms per ml; Ovalbumin restimulation 10 micrograms/ml; 72 hours
Procedure: The Balb/c mice (originated in 1923, it is a popular strain and is used in many different research disciplines. […] On day 50, spleens of the mice were harvested (3 weeks after last boost with Ovalbumin). […] Thereafter, additional Ovalbumin was added to the cells at 10 micrograms/ml for in vitro restimulation of the cells. 72 hours later, cell supernatants were harvested and assayed using the Becton Dickinson Mouse […] Cytokine CBA Kit. This kit can be used to measure Interleukin-2 (IL-2), Interleukin-4 (IL-4), Interleukin-5 (IL-5), Interferon-γ (IFN-γ), and Tumor Necrosis Factor-α (TNF-α) protein levels in a single sample. The kit performance has been optimized for analysis of physiologically relevant concentrations (pg/ml levels) of specific cytokine proteins in tissue culture supernatants and serum samples.

[3] = test system: LPS-induced TNF-alpha production in human macrophages; assay: TNF alpha production assay (ELISA); format: cell-based; settings: 10 micrograms per ml; LPS 200 ng/ml; overnight
Procedure: Human Peripheral Blood Mononuclear Cells (PBMC) were obtained from normal human donors. The macrophages were prepared by adherence of PBMC to the plastic wells of the plates. […] Not stimulated macrophages served as negative background control. After overnight incubation, supernatants from the control and LPS-stimulated cultures were harvested and assayed for TNF alpha production employing a TNF alpha specific ELISA.

Nc1nc(O)c2ncn(COC(CO)CO)c2n1 [Ganciclovir, reference compound]
antiviral activity of positive control compound (HCMV) (HCMV strain AD169; positive control): expected levels of antiviral activity

Asp-Met-His-Asp-Phe-Phe-Val-Gly-Leu-Met-NH2 (DMHDFFVGLM-NH2) [Peptide 2]
inhibition of HBV replication as compared to the virus control infection [1]: 78.5% | IFNγ spleen cells; TH1 response (% of control) [2]: 126.8 % of control | IL-2 spleen cells (% of control) [2]: 198.0 % of control | IL-4 spleen cells; TH2 response (% of control) [2]: 103.5 % of control | IL-5 spleen cells; TH2 response (% of control) [2]: 99.2 % of control | TNF-a spleen cells; TH1 response (% of control) [2]: 151.0 % of control | induction of the LPS-induced TNF-alpha production in human macrophages [3]: 15.9% | inhibition of HCMV plaque formation as compared to the virus control (HCMV strain AD169): did not inhibit

Met-Pro-His-Ser-Phe-Ala-Asn-Leu-Pro-Leu-Arg-Phe-NH2 (MPHSFANLPLRF-NH2) [Peptide 1]
inhibition of HBV replication as compared to the virus control infection [1]: 77.8% | IFNγ spleen cells; TH1 response (% of control) [2]: 57.5 % of control | IL-2 spleen cells (% of control) [2]: 239.7 % of control | IL-4 spleen cells; TH2 response (% of control) [2]: 168.7 % of control | IL-5 spleen cells; TH2 response (% of control) [2]: 99.2 % of control | TNF-a spleen cells; TH1 response (% of control) [2]: 106.3 % of control | induction of the LPS-induced TNF-alpha production in human macrophages [3]: 21.7% | inhibition of HCMV plaque formation as compared to the virus control (HCMV strain AD169): did not inhibit
